Test [1] has as its target T1, 2P-ERK2 (Rattus norvegicus, UniProt P63086). The note with it: for mode of inhibition (Lineweaver-Burk replots): 2P-ERK2, varying ATP; for Ki: 2P-ERK2, rapid on/off inhibitors, varying ATP, 20 μM sub-D.
Test [2] deals with T1, 2P-ERK2. Kind of test: Preincubation / 300-fold dilution experiment, recovery of activity. The note with it: for kinetic behaviour of binding and release: linear product accumulation, rapid recovery on dilution.
The target in test [3] is T1, 2P-ERK2. The note with it: read-out: IC50 This study; 2P-ERK2, 20 μM sub-D, 100 μM ATP, 25 °C; eq 1.
The next test relates to ERK2. The note with it: read-out: IC50 Published previously; cited from earlier work.
Another test addresses 0P-ERK2 (Rattus norvegicus, UniProt P63086). The experiment in a line: biochemical.
The target of test [4] is T1, 2P-ERK2. Type of test: biochemical.
For test [5], the target named is ERK. The note with it: read-out: Kd in vitro; cited from earlier work.
The target of test [6] is T1, 2P-ERK2. The experiment in a line: Morrison titration experiment for tight-binding inhibitors. Format: biochemical.
Test [7] deals with ERK. The note with it: read-out: IC50 in vivo (biological activity); cited from earlier work.

“And” between values parts separate entries of the source, which are not always exact repeats. Equal values may be shown once. Read-outs that look alike come from different tables or passages of the source. A value given as a limit tells only on which side of the number the result lay.

T1 sequence (P63086 whole entry): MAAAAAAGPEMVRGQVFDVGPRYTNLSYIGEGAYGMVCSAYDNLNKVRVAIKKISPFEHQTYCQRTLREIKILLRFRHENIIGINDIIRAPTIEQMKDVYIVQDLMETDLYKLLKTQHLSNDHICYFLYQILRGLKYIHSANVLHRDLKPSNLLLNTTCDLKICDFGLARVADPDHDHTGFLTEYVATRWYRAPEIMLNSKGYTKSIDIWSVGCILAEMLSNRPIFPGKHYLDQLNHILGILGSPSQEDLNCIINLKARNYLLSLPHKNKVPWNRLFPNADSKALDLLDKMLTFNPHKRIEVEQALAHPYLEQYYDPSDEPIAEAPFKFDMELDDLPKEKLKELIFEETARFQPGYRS
Sequence of 0P-ERK2 (P63086 whole entry): as above

Consider `Nc1[nH]nc2nnc(-c3c(-c4ccccc4)nn4ccccc34)cc12` [FR180204], for which, at 2P-ERK2 [1], the “mode of inhibition (Lineweaver-Burk replots)” value is reported as “competitive versus ATP” and the Ki was found to be 63 ± 17 nM. Besides, the “kon (rate constant for association), lower bound” value on 2P-ERK2 [2] (2P-ERK2, inferred from dissociation rate constant >0.05 s^−1) is listed as >0.8 ^d μM^−1 s^−1. Moreover, the “kinetic behaviour of binding and release” value on 2P-ERK2 [2] (2P-ERK2) was “rapid on/off inhibitors”. Also, the IC50 at 2P-ERK2 [3] came to 330 ± 64 nM. The half-inhibitory concentration (IC50) in the test with ERK2 was 140 nM.

For the compound `Cn1cnc2c(NCc3ccccc3)nc(NCCO)nc21` [Olomoucin], at 2P-ERK2 [1], the “mode of inhibition (Lineweaver-Burk replots)” value is recorded as “competitive versus ATP” and the affinity, expressed as Ki, was 10800 nM. Also, the “kinetic behaviour of binding and release” value on 2P-ERK2 [2] (2P-ERK2) is listed as “rapid on/off inhibitors”. Further, the IC50 at 2P-ERK2 [3] stood at 33000 nM.

On to `Nc1nccc(-c2c(-c3ccc(F)cc3)ncn2C2CCNCC2)n1` [SB220025], for which, on 2P-ERK2 [2] (2P-ERK2), the “kinetic behaviour of binding and release” value is on record as “rapid on/off inhibitors”.

For `O=C(Nc1ccc2[nH]nc(-c3ccncc3)c2c1)[C@@H]1CCN(CC(=O)N2CCN(c3ccc(-c4ncccn4)cc3)CC2)C1` [SCH772984], the Ki stood at 0.12 ± 0.04 nM on 0P-ERK2 and 0.12 ± 0.1 nM on 2P-ERK2 [6]. The “kinetic behaviour of onset of inhibition” value at 2P-ERK2 [4] (2P-ERK2, curved product accumulation) is listed as “slow-onset inhibition”. Further, the kon on 2P-ERK2 [4] (read-out: kon (apparent rate constant for association)) amounted to 2.8e+06 ± 340000 M⁻¹ s⁻¹. Further, the Kd on ERK [5] was 0.19 nM; at 2P-ERK2 [2], 0.11 ± 0.021 nM. Also, the “residence time (inverse of koff)” value at 2P-ERK2 [2] (2P-ERK2, predicted from koff) is reported as 0.9 h. Besides, the koff at 2P-ERK2 [2] (read-out: koff (dissociation rate constant)) is 0.000306 s⁻¹. For the same compound, the IC50 in the test with ERK2 is 0.24 nM; in the test with ERK [7], < 100 nM and 60 nM.

The record behind these values is PMC4724192 (Biochemistry, 2014).
